The values below come from article PMC10291556 (Journal of Medicinal Chemistry, 2023).

The subject of series [1] is HeLa cells. Kind of series: Mitochondrial membrane potential (TMRE, flow cytometry). The series is classed as cell-based, human. The settings on record: 10× IC50, 1 h, vs untreated control. The protocol:
Figure 4 Changes in the mitochondrial membrane potential Δψm in HeLa cells. The cells were treated with Pt compounds at the concentrations corresponding to 10× IC50 for 1 h and subsequently stained with TMRE. The fluorescence was measured by flow cytometry. Data represents mean ± SD from three independent experiments, *p < 0.01.
HeLa cells were seeded (6-well plates, 3 × 10^5 cells/well), grown overnight, and then treated with the tested compounds for 1 h. The medium was removed, and a fresh medium containing TMRE (Thermo Fisher Scientific) at a final concentration of […] in 500 μL was added. The cells were incubated for 30 min at 37 °C and then harvested using trypsin. TMRE fluorescence was measured with a fluorescence-activated cell sorting (FACS) Verse flow cytometer (Becton Dickinson), and the data were analyzed using the ModFit LT 4.1 (Verity Software House) software. The experiment was performed in triplicate.

Series [2] deals with DNA isolated from HeLa cells. Briefly: Pt associated with DNA isolated from treated HeLa cells. The series is classed as cell-based, human. The following applies: 1 µM compound, 6 h, mean ± SD. From the text: page 16: Table S1: […] concentration of tested compounds for 6 ha. […] Figure S19: A. Representative histograms obtained by flow cytometric analysis of calreticulin exposure in HeLa cells treated with indicated compounds. B. An example of gating DAPI negative population. Only DAPI-negative cells were taken for the evaluation.

In series [3] the test system is HeLa cells. Briefly: Glucose consumption. The series is classed as cell-based, human. The settings on record: 24 h, IC50 concentrations. As to the method:
Figure 3 (A) Lactate production. Relative lactate concentration in medium following a 6 h treatment of HeLa cells with the investigated compounds at concentrations corresponding to 5× IC50. […] Data represents mean ± SD, n = 2–4; asterisks indicate a statistically significant difference from the untreated control (*p < 0.01, **p < 0.005, ***, ***p < 0.001).
Glucose concentration in the culture medium prior to and after the treatment was determined with an Amplex Red Glucose/Glucose Oxidase Assay Kit (Invitrogen) following the producer’s protocol. Glucose consumption was normalized to final cell counts. The glucose amount consumed by the non-treated control was taken at 100%.

In another series the test system is MRC-5. Kind of series: MTT assay in non-cancerous fibroblasts, 72 h. The series is classed as cell-based. The following applies: non-cancerous human fibroblasts, 72 h incubation, mean ± SD. As to the method:
Cells were treated with the tested compounds in a final volume of 200 μL/well. […] Calbiochem, Darmstadt, Germany) was added, and the cells were incubated for an additional 2–4 h. The medium was removed, and the insoluble formazan product was dissolved in 100 μL/well DMSO. […] The read values were converted to the percentage of control. […] All experiments were made in triplicate.
(In general: Tetrazolium assays rely on reduction of a dye to a coloured formazan, in cell work by metabolically active cells.)

A further series deals with MDA-MB-231. Briefly: MTT antiproliferative assay, 72 h. The series is classed as cell-based, human. The following applies: MTT, 72 h incubation, mean ± SD; read-out: IC50 MDA-MB-231. As to the method:
Cells were treated with the tested compounds in a final volume of 200 μL/well. […] Calbiochem, Darmstadt, Germany) was added, and the cells were incubated for an additional 2–4 h. The medium was removed, and the insoluble formazan product was dissolved in 100 μL/well DMSO. The absorbance was read at 570 nm (vs 620 nm) using an Absorbance Reader (SUNRISE TECAN SCHOELLER). The read values were converted to the percentage of control. […] All experiments were made in triplicate.

In a further series the test system is COX in HeLa cells. Kind of series: COX activity assay (kit) in treated cells. Type of series: cell-based, human. The settings on record: 24 h, 1× IC50,72h, vs untreated control. As to the method:
The results are expressed relative to the COX activity of untreated control.
HeLa cells were seeded in 6-well plates at a density of 10^5 cells/well and incubated overnight. The cells were treated with the tested compounds at concentrations corresponding to 1× IC50. Following a 24 h treatment, the cells were lyzed with radioimmunoprecipitation assay (RIPA) buffer supplemented with proteinase inhibitors on ice for 10 min. The extracts were cleared with centrifugation (12,000g/5 min), and protein content was determined using Bradford assay. COX activity was determined with a COX Activity Assay Kit (Abcam). 6 μg of protein was used in the reaction. The experiment was set up according to the manufacturer’s instructions. The fluorescence (Ex/Em 535/587 nm) was read in a kinetic mode, and the COX inhibition was expressed as a percentage of the activity of the untreated control.

Series [4] has as its system HeLa cells. Kind of series: Cellular accumulation of platinum (ICP-MS). The series is classed as cell-based, human. The settings on record: for cellular uptake 0.1 μM/24 h: 0.1 μM complex; for cellular uptake 1 μM/6 h: 1 μM complex; for cellular uptake 10 μM/6 h: 10 μM complex; for cellular uptake relative to Pt(IV) complex 2: Table 3. As to the method: Briefly, 3 × 10^6 cells were seeded in 100 mm culture dishes and grown overnight. The cells were exposed to the tested complexes at indicated concentrations for indicated periods. […] The pellets were digested using the microwave acid (HCl) digestion system (CEM Mars). The platinum quantity taken up by the cells was determined by inductively coupled plasma mass spectrometry (ICP–MS). All experiments were performed in triplicate.

The test system of a further series is tubulin in HeLa cells. Briefly: Western blotting of tubulin. The following applies: 24 h, 0.25× or 0.5× IC50,72h, Western blot. Type of series: cell-based, human. As to the method: Figure 2 Western blotting analyses of tubulin in protein extract from HeLa cells treated with the investigated Pt complexes. (A) Representative membranes. […] Proteins from control, untreated cells were loaded to lane C. (B) Quantitative data evaluation; bars represent mean ± SD from two independent experiments.
HeLa cells were seeded in 60 mm dishes at a density of 3 × 10^5 cells/dish and cultured for 20 h. The cells were then treated with the tested compounds at concentrations indicated in the text. After 24 h of treatment, the cells were scraped, washed, and pelleted. […] After transferring to the polyvinylidene fluoride membrane, the proteins were detected using appropriate antibodies: anti-GAPDH antibody (mouse, Sigma-Aldrich), Anti-COX-2 (rabbit, Abcam), Anti-α-, β-, or γ-tubulin (all rabbit, Abcam), Anti-β-actin (mouse, Abcam), Goat Anti-Rabbit IgG(HRP) (Abcam; HRP = horseradish peroxidase), and Goat Anti-Mouse IgG(HRP) (ThermoFisher Scientific). SignalFire ECL Reagent (A + B) was used as a substrate for HRP, and the luminescence was recorded with Amersham Imager 680. The densities in the images were assessed with the Aida image analysis software.

In series [5] the test system is HeLa cells. Briefly: Lactate production. The series is classed as cell-based, human. The following applies: 6 h, 5× IC50, free DCF at concentrations 380–770 times higher.
Method: HeLa cells were seeded (1 × 10^5 cells/well) and grown in 12-well plates, treated with platinum agents, and diclofenac for 6 h. Lactate concentration in the culture medium was measured using a colorimetric Lactate Assay Kit (Sigma-Aldrich) following the manufacturer’s instructions. […] The amount of lactate in individual samples was determined from a standard curve and expressed as a percentage of non-treated control.

Turning to `Cc1c(C)c2c3c4c1=CC=C[N]4[Pt][N]3C=CC=2.NCCNC(=O)Cc1ccccc1Nc1c(Cl)cccc1Cl.NCCNC(=O)Cc1ccccc1Nc1c(Cl)cccc1Cl.N[C@H]1CCCC[C@@H]1N` [complex 4, Pt^IV56MeSS(DCF)2], in the series with HeLa cells [1], the “mitochondrial membrane potential Δψm (TMRE fluorescence)” value is given as “significant (p < 0.01) decrease in TMRE fluorescence”. Further, the “amount of Pt associated with DNA” value in series [2] was found to be 4.6 ± 0.3 pg Pt/µg DNA. The glucose consumption result in the series on HeLa cells [3] is listed as “reduction in glucose consumption”. In addition, in the series on MRC-5, half-maximal inhibition (IC50) required 320 ± 80 nM. The IC50 in the series on MDA-MB-231 was found to be 290 ± 40 nM. The “inhibition of COX activity” value in the series on COX in HeLa cells was “slightly but significantly inhibited COX-2 activity”. In addition, in the series on HeLa cells [4], the “cellular uptake 0.1 μM/24 h” value is 3.9 ± 0.3 ng Pt/10^6 cells, the “cellular uptake 1 μM/6 h” value is reported as 11 ± 2 ng Pt/10^6 cells, the “cellular uptake 10 μM/6 h” value is reported as 82 ± 7 ng Pt/10^6 cells and the “cellular uptake relative to Pt(IV) complex 2” value is reported as 1.7–1.8 fold. Moreover, the “reduction of the amount of tubulin in cell extracts” value in the series on tubulin in HeLa cells was “higher potency of the two complexes to reduce the amount of tubulin”. In the series with HeLa cells [5], the “lactate excreted into media” value is “considerably reduced”.

As to `Cc1c(C)c2c3c4c1=CC=C[N]4[Pt]([Cl])[N]3C=CC=2.NCCNC(=O)Cc1ccccc1Nc1c(Cl)cccc1Cl.N[C@H]1CCCC[C@@H]1N` [complex 3, Pt(IV)56MESSenDCFCl], the “mitochondrial membrane potential Δψm (TMRE fluorescence)” value in the series on HeLa cells [1] is “significant (p < 0.01) decrease in TMRE fluorescence”. In series [2], the “amount of Pt associated with DNA” value came to 2.3 ± 0.2 pg Pt/µg DNA. Also, the glucose consumption entry with HeLa cells [3] is on record as “reduction in glucose consumption”. The IC50 in the series on MRC-5 is 700 ± 100 nM. For the same compound, the IC50 with MDA-MB-231 came out at 400 ± 100 nM. In the series on COX in HeLa cells, the “inhibition of COX activity” value was “slightly but significantly inhibited COX-2 activity”. Also, in the series on HeLa cells [4], the “cellular uptake 0.1 μM/24 h” value was 3.6 ± 0.2 ng Pt/10^6 cells, the “cellular uptake 1 μM/6 h” value is recorded as 9.6 ± 0.8 ng Pt/10^6 cells, the “cellular uptake 10 μM/6 h” value stood at 61 ± 8 ng Pt/10^6 cells and the “cellular uptake relative to Pt(IV) complex 2” value is reported as 1.3–1.6 fold. The “reduction of the amount of tubulin in cell extracts” value with tubulin in HeLa cells is recorded as “higher potency of the two complexes to reduce the amount of tubulin”. Besides, the “lactate excreted into media” value in the series on HeLa cells [5] is given as “considerably reduced”.

By IC50 is commonly meant the concentration that inhibits the measured activity by half.
